Laboratory results: PubChem BioAssay AID1918943 (Molecular Pharmacology Branch, DTP, NCI, 2023)
Values joined by “and” are separate entries in the source; they are usually repeats but may differ in a detail not shown here. Identical values can stand only once.

Tested on: 855422-203-R-J1-PDC complex spheroid viability
Assay: Anticancer human tumor 855422-203-R-J1-PDC patient-derived bladder carcinoma cell line growth inhibition
Conditions: for viability, T/C: stronger effect = lower value; active = viability on the fitted dose curve at most 10% of control; inactive = the rest
In short: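 Multicellular complex spheroids of tumor cells with human endothelial cells (HUVEC) and mesenchymal stem cells; the LSD1 inhibitor iadademstat was combined with standard-of-care or investigational agents. Top concentration at or near clinical Cmax, half-log dilutions; final DMSO ≤0.25%.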

[1] = curve of first compound, second compound 0.1 µM
[2] = curve of first compound, second compound 0.316 µM
[3] = curve of first compound, second compound 1 µM
[4] = curve of first compound, second compound 3.16 µM
[5] = curve of first compound, second compound 10 µM
[6] = second compound 0.1 µM, first compound 0.000316 µM
[7] = second compound 0.1 µM, first compound 0.001 µM
[8] = second compound 0.1 µM, first compound 0.00316 µM
[9] = second compound 0.1 µM, first compound 0.01 µM
[10] = second compound 0.1 µM, first compound 0.0316 µM
[11] = second compound 0.1 µM, first compound 0.1 µM
[12] = second compound 0.316 µM, first compound 0.000316 µM
[13] = second compound 0.316 µM, first compound 0.001 µM
[14] = second compound 0.316 µM, first compound 0.00316 µM
[15] = second compound 0.316 µM, first compound 0.01 µM
[16] = second compound 0.316 µM, first compound 0.0316 µM
[17] = second compound 0.316 µM, first compound 0.1 µM
[18] = second compound 1 µM, first compound 0.000316 µM
[19] = second compound 1 µM, first compound 0.001 µM
[20] = second compound 1 µM, first compound 0.00316 µM
[21] = second compound 1 µM, first compound 0.01 µM
[22] = second compound 1 µM, first compound 0.0316 µM
[23] = second compound 1 µM, first compound 0.1 µM
[24] = second compound 3.16 µM, first compound 0.000316 µM
[25] = second compound 3.16 µM, first compound 0.001 µM
[26] = second compound 3.16 µM, first compound 0.00316 µM
[27] = second compound 3.16 µM, first compound 0.01 µM
[28] = second compound 3.16 µM, first compound 0.0316 µM
[29] = second compound 3.16 µM, first compound 0.1 µM
[30] = second compound 10 µM, first compound 0.000316 µM
[31] = second compound 10 µM, first compound 0.001 µM
[32] = second compound 10 µM, first compound 0.00316 µM
[33] = second compound 10 µM, first compound 0.01 µM
[34] = second compound 10 µM, first compound 0.0316 µM
[35] = second compound 10 µM, first compound 0.1 µM
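Also: drug exposure lasted 7 days starting on day 3 after seeding.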
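For viability, T/C in this document: luminescence viability as percent of DMSO vehicle wells = 100%.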

NS(=O)(=O)OCC1CC(n2ccc3c(NC4CCc5ccccc54)ncnc32)CC1O (stereo not drawn)
active: viability, T/C (compound 3 µM) 9.22% and 9.95%
436 nM and 668 nM: IC50 (curve of compound)
inactive: viability, T/C (compound 0.00949 µM) 97.8% and 103% | viability, T/C (compound 0.03 µM) 81% and 96.5% | viability, T/C (compound 0.0949 µM) 81.1% and 100% | viability, T/C (compound 0.3 µM) 63.5% and 87.5% | viability, T/C (compound 0.949 µM) 25.4% and 33.6%

CC(C)CC(NC(=O)CNC(=O)c1cc(Cl)ccc1Cl)B1OC(=O)CC(CC(=O)O)(C(=O)O)O1 (stereo not drawn) + NC1CC1c1ccc(-c2cccc(O)c2)cc1
active: viability, T/C [8] 3.7% | viability, T/C [9] 0.43% | viability, T/C [10] 0.02% | viability, T/C [11] 0.13% | viability, T/C [14] 3.27% | viability, T/C [15] 1.25% | viability, T/C [16] 0.02% | viability, T/C [17] 0.1% | viability, T/C [20] 3.81% | viability, T/C [21] 1.65% | viability, T/C [22] 0.03% | viability, T/C [23] 0.11% | viability, T/C [26] 3.11% | viability, T/C [27] 1% | viability, T/C [28] 0.03% | viability, T/C [29] 0.1% | viability, T/C [32] 2.61% | viability, T/C [33] 0.2% | viability, T/C [34] 0.11% | viability, T/C [35] 0.17%
1.83 nM: IC50 [2]
1.75 nM: IC50 [4]
1.8 nM: IC50 [1]
1.55 nM: IC50 [5]
1.84 nM: IC50 [3]
inactive: viability, T/C [6] 92.8% | viability, T/C [7] 104% | viability, T/C [12] 104% | viability, T/C [13] 102% | viability, T/C [18] 94.6% | viability, T/C [19] 108% | viability, T/C [24] 95% | viability, T/C [25] 94.6% | viability, T/C [30] 92% | viability, T/C [31] 78.9%

NC1CC1c1ccc(-c2cccc(O)c2)cc1 (stereo not drawn)
> 10000 nM: IC50 (compound alone, run of 12/07/2021)
inactive: viability, T/C (compound 0.1 µM) 84.2% | viability, T/C (compound 0.316 µM) 93.7% [middle of 25 runs] | viability, T/C (compound 1 µM) 90.2% [middle of 25 runs]

Cn1ncnc1C1c2n[nH]c(=O)c3cc(F)cc(c23)NC1c1ccc(F)cc1 (stereo not drawn) + NC1CCC(NC2CC2c2ccccc2)CC1
> 100 nM: IC50 [1] | IC50 [2] | IC50 [3] | IC50 [4] | IC50 [5]
inactive: viability, T/C [6] 104% | viability, T/C [7] 94.4% | viability, T/C [8] 97.1% | viability, T/C [9] 86.5% | viability, T/C [10] 78% | viability, T/C [11] 77.5% | viability, T/C [12] 90% | viability, T/C [13] 92.4% | viability, T/C [14] 84.3% | viability, T/C [15] 83.9% | viability, T/C [16] 90.7% | viability, T/C [17] 82.3% | viability, T/C [18] 88% | viability, T/C [19] 86.1% | viability, T/C [20] 109% | viability, T/C [21] 86.2% | viability, T/C [22] 92.9% | viability, T/C [23] 81.3% | viability, T/C [24] 89.4% | viability, T/C [25] 97% | viability, T/C [26] 109% | viability, T/C [27] 78.2% | viability, T/C [28] 77.4% | viability, T/C [29] 74.8% | viability, T/C [30] 82.7% | viability, T/C [31] 78.5% | viability, T/C [32] 101% | viability, T/C [33] 70.6% | viability, T/C [34] 74.6% | viability, T/C [35] 69.1%

COc1cc(C2c3cc4c(cc3C(OC3OC5COC(C)OC5C(O)C3O)C3COC(=O)C23)OCO4)cc(OC)c1O (stereo not drawn)
6.36% and 6.7%: viability, T/C (compound 3 µM)
138 nM and 148 nM: IC50 (curve of compound)
inactive: viability, T/C (compound 0.00949 µM) 88.6% and 97.5% | viability, T/C (compound 0.03 µM) 79.6% and 102% | viability, T/C (compound 0.0949 µM) 61% and 58.4% | viability, T/C (compound 0.3 µM) 28.3% and 31.1% | viability, T/C (compound 0.949 µM) 13.5% and 15.1%
